Measurements as given in patent publication US20260306500A1, “METHOD OF INHIBITING ADENOSINE TRIPHOSPHATE SECRETION, METHOD OF INHIBITING HEPATIC STELLATE CELL ACTIVATION, METHOD OF DEACTIVATING HEPATIC STELLATE CELL, METHOD OF TREATING HEPATIC FIBROSIS, METHOD OF TREATING NON-ALCOHOLIC STEATOHEPATITIS, AND METHOD OF TREATING PSORIASIS” (Kurume University, priority 2023, published 2026).

What was measured:
[1] = tested on: macrophages (THP-1 cells); test: ATP secretion from macrophages differentiated from THP-1 cells upon LPS stimulation; format: cell-based, human; details: 10 μM, 10 μg/ml LPS, N=10 (FIG. 9)
Method: Human acute monocytic leukemia cells (THP-1 cells (ACTT)) were cultured in accordance with Reference D. THP-1 cells were cultured in RPMI1640 medium supplemented with 10% fetal bovine serum (FBS), 100 units/ml penicillin, and 100 μg/ml streptomycin at 37° C. in 5% CO2 for 1 day. Further, THP-1 cells were cultured in RPMI1640 medium supplemented with 1 μg/ml Escherichia coli serotype 055:B5 (manufactured by Sigma-Aldrich) and 1000 units/ml mouse IFN-γ (manufactured by R&D Systems) at 37° C. in 5% CO2 for 1 day, to allow differentiation into macrophages.
The differentiated macrophages were cultured in RPMI1640 medium supplemented with 1 mg/ml Escherichia coli serotype 055:B5 (manufactured by Sigma-Aldrich) and 1000 units/ml mouse IFN-γ (manufactured by R&D Systems) at 2.5×10^4 cells/well in a 24-well plate at 37° C. in 5% CO2 for 4 days. The medium was replaced with HBSS (manufactured by Gibco) supplemented with imeglimin or clodronate), and then LPS (10 μg/ml) was added thereto, followed by further performing incubation for 10 minutes and then collection of 200 μl of the supernatant. The supernatant was immediately treated on a heat block at 95° C. for 10 minutes, and ATP in the supernatant was quantified using an ATP assay kit−Luminescence (manufactured by Dojindo) (N=10).

mouse auricle [2] = test: Topical solutions on imiquimod-induced psoriasis (Example 21); format: in vivo; details: for degree of auricular thickening: N=2 (FIG. 44)
Method: On Days 1, 2, 3, 5, and 6, 62.5 mg of 5% imiquimod cream (Beselna Cream 5%) was applied to auricles of wild-type mice (IMQ) or VNUT knockout mice (VNUT KO+IMQ) to induce psoriatic symptoms. […] For a negative control, only 20% glycerin solution was applied. In IMQ+1% IMG and IMQ+0.1% IMG, 20% glycerin solution supplemented with 1% (w/v) imeglimin and 0.1% (w/v) imeglimin, respectively, was applied immediately after the imiquimod application. Further, in IMQ+1% Clo and IMQ+0.1% Clo, 20% glycerin solution supplemented with 1% (w/v) clodronate and 0.1% (w/v) clodronate, respectively, was applied immediately after the imiquimod application.

[3] = tested on: catecholamine transport of chromaffin granule membranes; test: Catecholamine (dopamine) transport in chromaffin granule membranes; format: biochemical, cattle; details: role: inhibitor
Method: Chromaffin granule membranes were prepared from adrenal glands collected from slaughtered cattle according to Reference A (Nathan Nelson et al., 1988, Chromaffin Granule Proton Pump, Methods in Enzymology, 157, 619-633). Chromaffin granule membranes prepared by sucrose density gradient centrifugation were suspended in 2 ml of SME buffer (20 mM MOPS-tris (pH 7.0), 0.3 M sucrose, 5 mM EDTA, 10 μg/ml leupeptin, and 10 μg/ml pepstatin)+25% glycerol, and the resulting suspension was aliquoted and stored at −80° C. Under these conditions, the ATP transport activity, the V-ATPase activity, and the catecholamine transport activity remain fully active for at least one year.
A catecholamine transport inhibition experiment was carried out in the same manner as the ATP transport experiment except that the experiment used a measurement liquid containing 20 mM MOPS-tris (pH 7.0), 0.1 M sucrose, 0.1 M potassium chloride, 5 mM magnesium acetate, and about 5 μg of chromaffin granule membranes. To 0.5 ml of the measurement liquid, 2 mM ATP was added, and the resulting mixture was incubated at 30° C. for about 5 minutes, followed by addition of 3[H]-dopamine thereto to a final concentration of 10 μM. After further incubation at 30° C. for 15 minutes, 0.2 ml of the reaction liquid was subjected to suction filtration through a Millipore MCE membrane filter with a pore size of 0.45 μm, and the radioactivity on the filter was measured (N=3). The substrate, 3[H]-dopamine, was prepared by mixing 3,4-[RING-2,5,6-^3H]dihydroxyphenylethylamine (dopamine) (30 Ci/mmol) (manufactured by New England Nuclear) with dopamine hydrochloride (manufactured by LKT Laboratories) such that a final concentration of […] was achieved during the use.
Chromaffin granule membrane vesicles were prepared in the same manner as in Example 5, and uptake of radiolabeled ATP into the vesicles was measured. Transport activity of catecholamine (dopamine) and ATP-dependent proton transport by V-ATPase were also measured in the same manner as in Example 5.

[4] = PEP; cited from earlier work
[5] = tested on: isolated chromaffin granules; details: role: inhibitor; 1 to 10 mM PEP; cited from earlier work
keratinocytes = test: Imiquimod-induced ATP secretion in keratinocytes; format: cell-based, human; details: 18 hours, N=8 (FIG. 32)
Method: In the same manner as in Example 1, keratinocytes were cultured at 2.5×10^4 cells/well in a 24-well plate at 37° C. in 5% CO2 for 4 days. The medium was replaced with HBSS (manufactured by Gibco) supplemented with 1 μM or 10 μM imeglimin, and incubation was performed at 37° C. in 5% CO2 for 18 hours. Thereafter, imiquimod was added thereto at 1 μg/ml or 0.5 μg/ml, and incubation was performed for 15 minutes, followed by collection of 200 μl of the supernatant. The supernatant was immediately treated on a heat block at 95° C. for 10 minutes, and ATP in the supernatant was quantified using a ATP Assay Kit—Luminescence (manufactured by Dojindo) (N=8).

mouse auricle [6] = test: Imiquimod-induced psoriasis relapse model (Example 20); format: in vivo; details: 40 mg/kg oral
Method: To the left auricle of each mouse, 62.5 mg of 5% imiquimod cream (Beselna Cream 5%) was applied once daily a total of seven times (Days 1 to 7) in accordance with Example 19 to induce imiquimod-induced psoriasis. Thereafter, the imiquimod treatment was interrupted, and imeglimin (40 mg/kg) was orally administered on alternate days for 2 weeks (Day 8 to 22) (IMG). Mice without administration of imeglimin were designated IMQ. On Day 23, the imiquimod treatment was resumed, and 62.5 mg of 5% imiquimod cream (Beselna Cream 5%) was applied once daily a total of […]. In parallel, imeglimin (40 mg/kg) was orally administered daily to IMG.

[7] = topical 0.1% (w/v) in 20% glycerin solution after imiquimod
[8] = topical 1% (w/v) in 20% glycerin solution after imiquimod

Compound	LPS-induced ATP secretion from macrophages [1]	auricular thickness compared with imiquimod-treated VNUT knockout mice (mouse auricle [2]; topical 0.1% (w/v))	degree of auricular thickening (mouse auricle [2]; [7])	auricular thickness compared with imiquimod-treated VNUT knockout mice (mouse auricle [2]; topical 1% (w/v))	degree of auricular thickening (mouse auricle [2]; [8])	ATP-dependent dopamine transport activity ([3]; 5 mM PEP, 10 μM 3H-dopamine, 2 mM ATP, N=3, control 11.07±0.129) [nmol/mg protein]	inhibition of catecholamine transport ([3]; up to 5 mM PEP (data not shown))	energy of phosphate bond in vivo [4] [kcal/mol]	uptake of ATP into isolated chromaffin granules [5]	imiquimod-promoted ATP secretion (keratinocytes; 1 μM imeglimin)	imiquimod-promoted ATP secretion (keratinocytes; 10 NM imeglimin (so in the source))	relapse-preventing effect on psoriasis (mouse auricle [6])	psoriatic symptoms after resumed imiquimod treatment (mouse auricle [6]; alternate days Day 8 to 22, then daily from Day 23 (FIG. 43))	concentration dependence of effect on auricular thickening (mouse auricle [2]; topical 0.1% and 1% (w/v))
O=P(O)(O)C(Cl)(Cl)P(=O)(O)O [clodronate]	strongly inhibited	about the same	improved	about the same	improved	–	–	–	–	–	–	–	–	–
C=C(OP(=O)(O)O)C(=O)O [PEP, phosphoenolpyruvic acid]	–	–	–	–	–	12.41±0.250	did not inhibit	-14.8	inhibited	–	–	–	–	–
C[C@@H]1N=C(N)NC(N(C)C)=N1 [imeglimin]	strongly inhibited	–	no effect	about the same	improved	–	–	–	–	strongly inhibited	strongly inhibited	relapse-preventing effect on psoriasis	markedly reduced compared to IMQ	concentration-dependent
